# From paper PMC12758200, “Inhibition of lysosomal LAMTOR1 increases autophagy by suppressing the MTORC1 pathway to ameliorate lipid accumulations in MAFLD” (Autophagy, 2025)
# Tests used:
# [1] = molecular target: LAMTOR1 (late endosomal/lysosomal adaptor, MAPK and MTOR activator 1) (Mus musculus, UniProt Q9CQ22); experiment: dose-dependent DARTS western blot in 3T3-L1 lysate; CETSA and isothermal dose-response CETSA; format: biochemical
# [2] = molecular target: T1, LAMTOR1 (Mus musculus, UniProt Q9CQ22, L22A); experiment: DARTS in lysate of transfected HEK293 cells, […] ACA; format: cell-based
# T1 construct: MYC-LAMTOR1^L22A
# T1 sequence (Q9CQ22 2-161 L22A): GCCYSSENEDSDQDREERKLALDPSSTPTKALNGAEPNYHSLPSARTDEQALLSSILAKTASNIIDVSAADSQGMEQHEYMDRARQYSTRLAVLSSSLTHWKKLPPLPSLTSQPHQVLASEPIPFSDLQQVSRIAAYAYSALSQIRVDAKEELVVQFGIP
# LAMTOR1 (late endosomal/lysosomal adaptor, MAPK and MTOR activator 1), sequence (Q9CQ22 2-161): as the sequence (Q9CQ22 2-161 L22A) above, with A21L counted along it
smiles,measurement,setting,value
"COc1ccc(-c2cc(=O)c3c(O)cc(O)cc3o2)cc1 [ACA, 5,7-dihydroxy-4’methoxyflavone]",EC50,[1],~44 µM
same,% increase in stability,[2],35.7 % increase in stability
